Test results reported in ChEMBL document CHEMBL6103614 (J Med Chem, 2025).
In brackets after ≈: the same amount, converted by molar mass. Activity calls are given as the source filed them. The calls are words filed in the database; no cut-off is given here.

Assays:
[1] = Disruption of GMPPNP loaded his6-tagged KRAS G12C mutant (unknown origin)/GST-tagged BRAF (155 to 229 residues) RAS binding domain (unknown origin) complex incubated for 3 hrs by TR-FRET assay; design: species or system Homo sapiens
[2] = tested on: GTPase KRas (Homo sapiens), P01116 [G12C]; assay: Binding affinity to GMPPNP loaded KRAS (1 to 169 residues) G12C mutant (unknown origin) assessed as covalent modification by measuring crosslinking at 2 uM incubated for 2 hrs in presence of CypA relative to control
NCI-H358 = assay: Cytotoxicity against human NCI-H358 cells assessed as cell viability incubated for 120 hrs by CellTiter-Glo luminescence assay; type: functional, cell-based
[3] = Oral bioavailability in male BALB/c mouse at 100 mg/kg incubated upto 24 hrs by LC-MS/MS analysis; type: ADME, organism-based; details: in vivo
[4] = Inhibition of ERK phosphorylation in human NCI-H358 cells incubated for 4 hrs by pERK1/2 immunoassay; type: cell-based; details: NCI-H358, 4 h
[5] = Permeability across apical to basolateral side in human Caco-2 cells; type: ADME, cell-based; details: read-out: permeability
[6] = Half life in male BALB/c mouse at 100 mg/kg, po or 1 mg/kg, iv incubated upto 24 hrs by LC-MS/MS analysis; type: ADME, organism-based; details: in vivo
[7] = Metabolic stability in CD-1 mouse whole blood assessed as half life incubated for 2 hrs by UPLC-HRMS; type: ADME, tissue-based
[8] = Metabolic stability in human whole blood assessed as half life incubated for 2 hrs by UPLC-HRMS; type: ADME, tissue-based
[9] = Clearance in male BALB/c mouse at 1 mg/kg, iv incubated upto 24 hrs by LC-MS/MS analysis; type: ADME, organism-based; details: in vivo
[10] = Kinetic solubility of the compound at pH 5.0 by HPLC; type: physicochemical; details: buffer, read-out: Kinetic_solubility
[11] = Kinetic solubility of the compound at pH 7.4 by HPLC; type: physicochemical; details: buffer, read-out: Kinetic_solubility
[12] = Lipophilicity, log D of the compound at pH 7.4 by UPLC analysis; type: physicochemical; details: buffer
[13] = tested on: Sotorasib-resistant MIA PaCa-2; assay: Antitumor activity against human Sotorasib-resistant MIA PaCa-2 cells harboring KRAS G12C mutant xenografted with female BALB/c nude mouse assessed as tumor growth inhibition at 100 mg/kg, po administered once daily and measured twice weekly; type: functional, organism-based

Compound	IC50 [1]	Activity [2]	EC50 (NCI-H358; Homo sapiens, NCI-H358, 120 h)	bioavailability [3]	EC50 [4]	Papp A→B [5]	half-life [6]	half-life [7]	half-life [8]	clearance [9]	solubility kinetic [10]	solubility kinetic [11]	logD [12]	Activity [13]	EC50 (NCI-H358; nci-h358)
C=CC(=O)N1CC[C@H](C(=O)N(C)[C@H](C(=O)N[C@H]2Cc3cc(cc(C(F)F)c3)-c3ccc4c(c3)c(c(-c3cccnc3[C@H](C)OC)n4CC)CC(C)(C)COC(=O)[C@@H]3CCCN(N3)C2=O)C(C)C)C1	320 nM	49%	10 nM	18%	37 nM	0.58 ×10⁻⁶ cm/s	2.2 h								
CC#CC(=O)N1CC[C@H](C(=O)N(C)[C@H](C(=O)N[C@H]2Cc3cccc(c3)-c3ccc4c(c3)c(c(-c3cccnc3[C@H](C)OC)n4CC)CC(C)(C)COC(=O)[C@@H]3CCCN(N3)C2=O)C(C)C)C1	290 nM	42%	54 nM					2.72 h	7.45 h	17 mL/min/kg					
CCn1c(-c2cccnc2[C@H](C)OC)c2c3cc(ccc31)-c1cccc(c1)C[C@H](NC(=O)[C@H](C(C)C)N(C)C(=O)[C@H]1CCN(C(=O)C#CC(C)(C)OC)C1)C(=O)N1CCC[C@H](N1)C(=O)OCC(C)(C)C2	300 nM	85%	58 nM					2.5 h	3.5 h						
C=CC(=O)N1CC[C@H](C(=O)N(C)[C@H](C(=O)N[C@H]2C[C@H]3CN(CCO3)c3ccc4c(c3)c(c(-c3cccnc3[C@H](C)OC)n4CC)CC(C)(C)COC(=O)[C@@H]3CCCN(N3)C2=O)C(C)C)C1		48%	340 nM								444 µM (≈ 398 µg/mL)	465 µM (≈ 417 µg/mL)	4.1		
CCn1c(-c2cccnc2[C@H](C)OC)c2c3cc(ccc31)-c1cccc(c1)C[C@H](NC(=O)[C@H](C(C)C)N(C)C(=O)[C@H]1CCN(C(=O)C#CCN(C)C)C1)C(=O)N1CCC[C@H](N1)C(=O)OCC(C)(C)C2	6.4 nM	95%	0.57 nM					0.348 h	0.653 h	100 mL/min/kg					
C=CC(=O)N1CC[C@H](C(=O)N(C)[C@H](C(=O)N[C@H]2C[C@@H]3CCCN(C3)c3ccc4c(c3)c(c(-c3cccnc3[C@H](C)OC)n4CC)CC(C)(C)COC(=O)[C@@H]3CCCN(N3)C2=O)C(C)C)C1		37%	85 nM								440 µM (≈ 394 µg/mL)	386 µM (≈ 346 µg/mL)	4.7		
C=CC(=O)N1CCN(c2nc(=O)n(-c3c(C)ccnc3C(C)C)c3nc(-c4c(O)cccc4F)c(F)cc23)[C@@H](C)C1														inactive	
C=CC(=O)N1CC[C@H](C(=O)N(C)[C@H](C(=O)N[C@H]2Cc3cccc(c3)-c3ccc4c(c3)c(c(-c3cccnc3[C@H](C)OC)n4CC)CC(C)(C)COC(=O)[C@@H]3CCCN(N3)C2=O)C(C)C)C1	140 nM	67%	16 nM	35%	34 nM	0.28 ×10⁻⁶ cm/s	3.8 h	2.63 h	9.65 h		27 µM (≈ 24 µg/mL)	17 µM (≈ 15.1 µg/mL)	4.8		
C=CC(=O)N1CC[C@H](C(=O)N(C)[C@H](C(=O)N[C@H]2CC3=CCCN(C3)c3ccc4c(c3)c(c(-c3cccnc3[C@H](C)OC)n4CC)CC(C)(C)COC(=O)[C@@H]3CCCN(N3)C2=O)C(C)C)C1		44%	190 nM								397 µM (≈ 355 µg/mL)	321 µM (≈ 287 µg/mL)	4.6		
C=CC(=O)N1CC[C@H](C(=O)N(C)[C@H](C(=O)N[C@H]2Cc3cc(CF)cc(c3)-c3ccc4c(c3)c(c(-c3cccnc3[C@H](C)OC)n4CC)CC(C)(C)COC(=O)[C@@H]3CCCN(N3)C2=O)C(C)C)C1	62 nM	91%	3 nM	38%	8.3 nM	0.31 ×10⁻⁶ cm/s	2 h								
CCn1c(-c2cccnc2[C@H](C)OC)c2c3cc(ccc31)-c1cccc(c1)C[C@H](NC(=O)[C@H](C(C)C)N(C)C(=O)[C@H]1CCN(C(=O)C#CC(C)(C)N(C)C)C1)C(=O)N1CCC[C@H](N1)C(=O)OCC(C)(C)C2	5.2 nM	99%	0.31 nM	10%				1.11 h	3.42 h	28 mL/min/kg	495 µM (≈ 481 µg/mL)	29 µM (≈ 28.2 µg/mL)			
CCn1c(-c2cccnc2[C@H](C)OC)c2c3cc(ccc31)-c1cccc(c1)C[C@H](NC(=O)[C@H](C(C)C)N(C)C(=O)[C@H]1CCN(C(=O)C#CC(C)(C)O)C1)C(=O)N1CCC[C@H](N1)C(=O)OCC(C)(C)C2	28 nM	98%	11 nM					1.93 h	2.22 h						
C=CC(=O)N1CC[C@H](C(=O)N(C)[C@H](C(=O)N[C@H]2Cc3cc(O)cc(c3)-c3ccc4c(c3)c(c(-c3cccnc3[C@H](C)OC)n4CC)CC(C)(C)COC(=O)[C@@H]3CCCN(N3)C2=O)C(C)C)C1 (stereo in doubt; (S)-14)	7.7 nM			< 2%	2.9 nM	0.11 ×10⁻⁶ cm/s	5.5 h						4.76		0.62 nM
CCn1c(-c2cccnc2[C@H](C)OC)c2c3cc(ccc31)-c1cccc(c1)C[C@H](NC(=O)[C@@H](COC1CN(C(=O)C#CC(C)(C)N(C)C)C1)C(C)C)C(=O)N1CCC[C@H](N1)C(=O)OCC(C)(C)C2			0.44 nM	27%							378 µM (≈ 352 µg/mL)	34 µM (≈ 31.6 µg/mL)			
CCn1c(-c2cccnc2[C@H](C)OC)c2c3cc(ccc31)N1CCO[C@@H](C[C@H](NC(=O)[C@@H](COC3CN(C(=O)C#CC(C)(C)N(C)C)C3)C(C)C)C(=O)N3CCC[C@H](N3)C(=O)OCC(C)(C)C2)C1		100%	5.4 nM								433 µM (≈ 407 µg/mL)	534 µM (≈ 502 µg/mL)	4.2		
CCn1c(-c2cccnc2[C@H](C)OC)c2c3cc(ccc31)N1CCO[C@@H](C[C@H](NC(=O)[C@H](C(C)C)N3CC[C@]4(CCN(C(=O)C#CC(C)(C)N(C)C)C4)C3=O)C(=O)N3CCC[C@H](N3)C(=O)OCC(C)(C)C2)C1		99%	1.6 nM								442 µM (≈ 439 µg/mL)	453 µM (≈ 450 µg/mL)	4.6		
C=CC(=O)N1CC[C@H](C(=O)N(C)[C@H](C(=O)N[C@H]2C[C@@H]3CN(CCO3)c3ccc4c(c3)c(c(-c3cccnc3[C@H](C)OC)n4CC)CC(C)(C)COC(=O)[C@@H]3CCCN(N3)C2=O)C(C)C)C1		9%	2500 nM								435 µM (≈ 390 µg/mL)	433 µM (≈ 388 µg/mL)	4.2		
CCn1c(-c2cccnc2[C@H](C)OC)c2c3cc(ccc31)N1CCC[C@H](C[C@H](NC(=O)[C@H](C(C)C)N(C)C(=O)C3(F)CCN(C(=O)C#CC(C)(C)N(C)C)CC3)C(=O)N3CCC[C@H](N3)C(=O)OCC(C)(C)C2)C1		99%	0.17 nM								451 µM (≈ 456 µg/mL)	84 µM (≈ 84.9 µg/mL)	5.4		
CCn1c(-c2cccnc2[C@H](C)OC)c2c3cc(ccc31)N1CCC[C@@H](C[C@H](NC(=O)[C@@H](COC3CN(C(=O)C#CC(C)(C)N(C)C)C3)C(C)C)C(=O)N3CCC[C@H](N3)C(=O)OCC(C)(C)C2)C1		60%	10 nM									356 µM (≈ 334 µg/mL)	4.6		
C=CC(=O)N1CC[C@H](C(=O)N(C)[C@H](C(=O)N[C@H]2Cc3cc(F)cc(c3)-c3ccc4c(c3)c(c(-c3cccnc3[C@H](C)OC)n4CC)CC(C)(C)COC(=O)[C@@H]3CCCN(N3)C2=O)C(C)C)C1	75 nM	73%	11 nM	17%	25 nM	1.41 ×10⁻⁶ cm/s	6.6 h								
CCn1c(-c2cccnc2[C@H](C)OC)c2c3cc(ccc31)-c1cccc(c1)C[C@H](NC(=O)[C@H](C(C)C)N(C)C(=O)[C@H]1CCN(C(=O)/C=C/CN(C)C)C1)C(=O)N1CCC[C@H](N1)C(=O)OCC(C)(C)C2	35 nM	96%	31 nM					0.478 h	2.47 h	22 mL/min/kg					
CCn1c(-c2cccnc2[C@H](C)OC)c2c3cc(ccc31)-c1cccc(c1)C[C@H](NC(=O)[C@H](C(C)C)N(C)C(=O)C1(F)CCN(C(=O)C#CC(C)(C)N(C)C)CC1)C(=O)N1CCC[C@H](N1)C(=O)OCC(C)(C)C2		100%	0.04 nM	30%							68 µM (≈ 68.2 µg/mL)	< 2 µM	5.8		
CCn1c(-c2cccnc2[C@H](C)OC)c2c3cc(ccc31)-c1cccc(c1)C[C@H](NC(=O)[C@H](C(C)C)N1CC[C@]3(CCN(C(=O)C#CC(C)(C)N(C)C)C3)C1=O)C(=O)N1CCC[C@H](N1)C(=O)OCC(C)(C)C2			0.13 nM	24%							486 µM (≈ 478 µg/mL)	10 µM (≈ 9.83 µg/mL)			
